The target in this assay is T1, human M4 muscarinic acetylcholine receptor (Homo sapiens, UniProt P08173).
T1 construct: expressed in transfected cells; host or cells: CHO-K1
T1 sequence (P08173 1-479): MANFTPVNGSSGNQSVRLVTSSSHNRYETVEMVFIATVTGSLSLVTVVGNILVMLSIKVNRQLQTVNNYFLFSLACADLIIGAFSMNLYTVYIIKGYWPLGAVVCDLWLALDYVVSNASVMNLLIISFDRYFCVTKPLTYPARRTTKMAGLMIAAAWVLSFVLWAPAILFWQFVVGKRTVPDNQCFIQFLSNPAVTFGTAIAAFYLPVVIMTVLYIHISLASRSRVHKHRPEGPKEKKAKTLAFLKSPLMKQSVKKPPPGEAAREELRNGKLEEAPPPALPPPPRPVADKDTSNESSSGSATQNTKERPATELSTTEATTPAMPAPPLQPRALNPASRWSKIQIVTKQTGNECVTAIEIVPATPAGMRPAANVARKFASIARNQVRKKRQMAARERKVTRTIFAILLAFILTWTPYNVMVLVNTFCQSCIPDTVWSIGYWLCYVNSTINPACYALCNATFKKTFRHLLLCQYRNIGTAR
Briefly: human FLIPR-based M4 PAM assay, CHO-K1 cells stably transfected with human M4 receptor and chimeric G-protein Gαqi5. Type of assay: cell-based. To be noted: inflection point (IP) of dose response curve; acetylcholine added at 20% of maximum response; CHO-K1 human M4/Gαqi5, FLIPR Tetra. The gist of the method:
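CHO-K1 cells were loaded with calcium dye at 37 °C for ~1 h. Fluorescence (ex 470–495/em 515–575 nm) was read for 4 min after test compound at increasing concentrations, then 3.5 min after acetylcholine at an EC20; sometimes a third addition at EC70 followed. The value is the inflection point of a 4-parameter logistic fit.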

What is called EC50 is the concentration giving half of the maximal effect. In turn, `Cc1cc(C(=O)NC2CCc3ccccc3C2)nnc1N1CCC(Oc2cccc(C#N)c2)CC1` (centres unmarked) [Example 201, 6-[4-(3-cyanophenoxy)piperidin-1-yl]-5-methyl-N-(1,2,3,4-tetrahydronaphthalen-2-yl)pyridazine-3-carboxamide] came in with a half-maximal effective concentration (EC50) of 0.272 µM.
In the case of `Cc1cc(C(=O)NC2CCCc3ccccc32)nnc1N1CCC(Oc2cccc(C#N)c2)CC1` (centres unmarked) [Example 202, 6-[4-(3-cyanophenoxy)piperidin-1-yl]-5-methyl-N-(1,2,3,4-tetrahydronaphthalne-1-yl)pyridazine-3-carboxamide], a half-maximal response (EC50) required 0.473 µM.
Molecule `COc1ccc(OC2CCN(c3nnc(C(=O)N4CCc5snc(-c6cccnc6)c5C4)cc3C)CC2)cn1` [Example 203, 5-[(6-{4-[(6-methoxypyridin-3-yl)oxy]piperidin-1-yl}-5-methylpyridazin-3-yl)carbonyl]-3-pyridin-3-yl-4,5,6,7-tetrahydroisothiazolo[4,5-c]pyridine] came in with an EC50 of 0.504 µM. The EC50 values of the last two molecules are within 1.5-fold of each other.
Take `Cc1cc(C(=O)N2CCc3snc(-c4cccnc4)c3C2)nnc1N1CCC(Oc2cccc(C#N)c2)CC1` [Example 204, 3-[(1-{4-methyl-6-[(3-pyridin-3-yl-6,7-dihydroisothiazolo[4,5-c]pyridin-5(4H)-yl)carbonyl]pyridazin-3-yl}piperidin-4-yl)oxy]benzonitrile]: the EC50 came to 1.15 µM.
`Cc1cc(C(=O)NCc2ccncc2)nnc1N1CCC(Oc2cccc(C#N)c2)CC1` [Example 204A, 6-(4-(3-cyanophenoxy)piperidin-1-yl)-5-methyl-N-(pyridin-4-ylmethyl)pyridazine-3-carboxamide] showed an EC50 of 0.099 µM. This EC50 is about 12-fold lower than that of the molecule before.
As for `CCc1cc(C(=O)NCc2ccncc2)nnc1N1CCC(Oc2ccc(OC)nc2)CC1` [Example 205, 5-Ethyl-6-(4-((6-methoxypyridin-3-yl)oxy)piperidin-1-yl)-N-(pyridin-4-ylmethyl)pyridazine-3-carboxamide], the midpoint of the response, the EC50, lay at 0.097 µM.
Regarding `COc1ccc(OC2CCN(c3nc(C(N)=O)nc(Cl)c3C)CC2)cn1` [Example 206, 4-chloro-6-(4-((6-methoxypyridin-3-yl)oxy)piperidin-1-yl)-5-methylpyrimidine-2-carboxamide], the response was half-maximal at 0.168 µM (EC50).
With `COc1ccc(OC2CCN(c3nc(C(=O)NCc4ccncc4)nc(Cl)c3C)CC2)cn1` [Example 207, 4-chloro-6-(4-((6-methoxypyridin-3-yl)oxy)piperidin-1-yl)-5-methyl-N-(pyridin-4-ylmethyl)pyrimidine-2-carboxamide] the figure was 0.224 µM.
With `COc1ccc(OC2CCN(c3nc(C(=O)NCCc4ccncc4)nc(Cl)c3C)CC2)cn1` [Example 208, 4-chloro-6-(4-((6-methoxypyridin-3-yl)oxy)piperidin-1-yl)-5-methyl-N-(2-(pyridin-4-yl)ethyl)pyrimidine-2-carboxamide], the concentration for a half-maximal effect (EC50) is 0.491 µM.
With `COc1ccc(OC2CCN(c3nc(C(=O)NNC(C)C)nc(Cl)c3C)CC2)cn1` [Example 209, 4-chloro-N′-isopropyl-6-(4-((6-methoxypyridin-3-yl)oxy)piperidin-1-yl)-5-methylpyrimidine-2-carbohydrazide] the figure was 0.533 µM; with `COc1ccc(OC2CCN(c3nc(C(=O)NC45CC(C4)C5)nc(Cl)c3C)CC2)cn1` [Example 210, N-(bicyclo[1.1.1]pentan-1-yl)-4-chloro-6-(4-((6-methoxypyridin-3-yl)oxy)piperidin-1-yl)-5-methylpyrimidine-2-carboxamide], 0.592 µM; with `COc1ccc(OC2CCN(c3nc(C(=O)NCc4ccncc4Cl)nc(Cl)c3C)CC2)cn1` [Example 211, 4-chloro-N-((3-chloropyridin-4-yl)methyl)-6-(4-((6-methoxypyridin-3-yl)oxy)piperidin-1-yl)-5-methylpyrimidine-2-carboxamide], 0.635 µM.
On to `COc1ccc(OC2CCN(c3nc(C(=O)NC(C)(C)C)nc(Cl)c3C)CC2)cn1` [Example 212], for which the 50% effective concentration (EC50) is 0.705 µM.
In turn, `COc1ccc(OC2CCN(c3nc(C(=O)NC(C)C)nc(Cl)c3C)CC2)cn1` [Example 213, 4-chloro-N-isopropyl-6-(4-((6-methoxypyridin-3-yl)oxy)piperidin-1-yl)-5-methylpyrimidine-2-carboxamide] yielded an EC50 of 0.729 µM.
In the case of `COc1ccc(OC2CCN(c3nc(C(=O)NC4CCCc5cnccc54)nc(Cl)c3C)CC2)cn1` (centres unmarked) [Example 214, 4-chloro-6-(4-((6-methoxypyridin-3-yl)oxy)piperidin-1-yl)-5-methyl-N-(5,6,7,8-tetrahydroisoquinolin-5-yl)pyrimidine-2-carboxamide], the EC50 was determined as 0.77 µM.
`COc1ccc(OC2CCN(c3nc(C(=O)NC4CNC4)nc(Cl)c3C)CC2)cn1` [Example 215, N-(azetidin-3-yl)-4-chloro-6-(4-((6-methoxypyridin-3-yl)oxy)piperidin-1-yl)-5-methylpyrimidine-2-carboxamide] gave an EC50 of 0.835 µM.
For `COc1ccc(OC2CCN(c3nc(C(=O)NC4CCc5ccncc5C4)nc(Cl)c3C)CC2)cn1` (centres unmarked) [Example 216, 4-chloro-6-(4-((6-methoxypyridin-3-yl)oxy)piperidin-1-yl)-5-methyl-N-(5,6,7,8-tetrahydroisoquinolin-7-yl)pyrimidine-2-carboxamide] the value was 0.997 µM; for `COc1ccc(OC2CCN(c3nc(C(=O)NC4CCc5cccnc5C4)nc(Cl)c3C)CC2)cn1` (centres unmarked) [Example 217, 4-chloro-6-(4-((6-methoxypyridin-3-yl)oxy)piperidin-1-yl)-5-methyl-N-(5,6,7,8-tetrahydroquinolin-7-yl)pyrimidine-2-carboxamide], 1.02 µM.
`COc1ccc(OC2CCN(c3nc(C(=O)NC4CCc5ncccc5C4)nc(Cl)c3C)CC2)cn1` (centres unmarked) [Example 218, 4-chloro-6-(4-((6-methoxypyridin-3-yl)oxy)piperidin-1-yl)-5-methyl-N-(5,6,7,8-tetrahydroquinolin-6-yl)pyrimidine-2-carboxamide] registered an EC50 of 1.05 µM.
Regarding `COc1ccc(OC2CCN(c3nc(C(=O)NCc4ccccc4Cl)nc(Cl)c3C)CC2)cn1` [Example 219, 4-chloro-N-(2-chlorobenzyl)-6-(4-((6-methoxypyridin-3-yl)oxy)piperidin-1-yl)-5-methylpyrimidine-2-carboxamide], the EC50 was determined as 1.09 µM.
In turn, `COc1ccc(OC2CCN(c3nc(C(=O)NC(C)(C)c4ccncc4)nc(Cl)c3C)CC2)cn1` [Example 220, 4-chloro-6-(4-((6-methoxypyridin-3-yl)oxy)piperidin-1-yl)-5-methyl-N-(2-(pyridin-4-yl)propan-2-yl)pyrimidine-2-carboxamide] came in with a half-maximal effective concentration (EC50) of 1.43 µM.
With `COc1ccc(OC2CCN(c3nc(C(=O)NC4CCc5ccccc5C4)nc(Cl)c3C)CC2)cn1` (centres unmarked) [Example 221, 4-chloro-6-(4-((6-methoxypyridin-3-yl)oxy)piperidin-1-yl)-5-methyl-N-(1,2,3,4-tetrahydronaphthalen-2-yl)pyrimidine-2-carboxamide], a half-maximal response (EC50) required 1.83 µM.
The molecule `COc1ccc(O[C@@H]2CCN(c3nc(C(N)=O)nc(Cl)c3C)C[C@@H]2F)cn1` [Example 222, 4-chloro-6-((3S,4R)-3-fluoro-4-((6-methoxypyridin-3-yl)oxy)piperidin-1-yl)-5-methylpyrimidine-2-carboxamide] registered a concentration giving a half-maximal response (EC50) of 0.141 µM. This EC50 lies about 13-fold lower than the previous one.

Source of the values: US11319298B2 (Merck Sharp & Dohme Corp., priority 2016, dated 2022).
